Test results as given in patent US20250230193A1, “CYCLIC COMPOUND HAVING SELECTIVE KRAS INHIBITORY EFFECT ON HRAS AND NRAS” (CHUGAI SEIYAKU KABUSHIKI KAISHA, priority 2022, published 2025).
Where a SMILES comes first, the peptide text is derived from it. Bridges are numbered along the chain shown (N, C = ends). [ ]: non-standard residue; d: D form. The star is where a group is joined. hPhe(3-Cl-4-CF3) = N[C@@H](CCc1ccc(C(F)(F)F)c(Cl)c1)C(=O)O; NPrPhe(4-CF3) = CCCN[C@@H](Cc1ccc(C(F)(F)F)cc1)C(=O)O; NMeGly(cPent) = CN[C@H](C(=O)O)C1CCCC1; Gly(cPent) = N[C@H](C(=O)O)C1CCCC1; NMeD = CN[C@@H](CC(=O)O)C(=O)O; NMeL = CN[C@@H](CC(C)C)C(=O)O; Morpholide = C1CN(*)CCO1; Ac5c = NC1(C(=O)O)CCCC1; Aze = O=C(O)[C@@H]1CCN1; Sar = CNCC(=O)O

Experiments:
[1] = target: GDP-bound NRAS wild-type protein (Homo sapiens, UniProt P01111); experiment: Binding to NRAS by surface plasmon resonance (SPR), Single Cycle Kinetics; conditions: SPR
Chain of GDP-bound NRAS wild-type protein (P01111 whole entry): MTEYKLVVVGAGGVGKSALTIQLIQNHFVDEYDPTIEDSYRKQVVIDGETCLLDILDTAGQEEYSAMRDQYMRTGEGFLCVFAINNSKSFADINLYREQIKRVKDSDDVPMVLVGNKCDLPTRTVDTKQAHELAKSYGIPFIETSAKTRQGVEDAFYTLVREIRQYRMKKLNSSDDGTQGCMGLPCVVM

[2] = target: GDP-bound HRAS wild-type protein (Homo sapiens, UniProt P01112); experiment: Binding to HRAS by surface plasmon resonance (SPR), Single Cycle Kinetics; conditions: SPR
Chain of GDP-bound HRAS wild-type protein (P01112 whole entry): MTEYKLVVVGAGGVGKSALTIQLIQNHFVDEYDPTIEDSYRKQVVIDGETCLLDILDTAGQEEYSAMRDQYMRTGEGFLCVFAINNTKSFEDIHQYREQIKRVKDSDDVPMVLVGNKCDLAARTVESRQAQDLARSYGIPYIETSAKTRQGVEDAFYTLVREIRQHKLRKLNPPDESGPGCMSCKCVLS

[3] = GDP-bound NRAS wild-type vs GDP-bound KRAS wild-type
[4] = GDP-bound HRAS wild-type vs GDP-bound KRAS wild-type

**Q.** What does the source list for `CCCN(C)C(=O)[C@@H]1CC(=O)N(C)[C@@H](COCC)C(=O)N[C@@H]([C@@H](C)CC)C(=O)N(C)CC(=O)N(C)[C@H]2C/C=C\CCN(C2=O)[C@@H](Cc2ccc(C(F)(F)F)cc2)C(=O)N(C)CC(=O)N[C@@H](CCc2ccc(C(F)(F)F)c(OC)c2)C(=O)N2C[C@H](OCC)C[C@H]2C(=O)NC2(CCC2)C(=O)N(C)[C@@H](C2CCCC2)C(=O)N1C` [PP2015]?
**A.** NRAS/KRAS (ratio of KD value for NRAS to KD value for KRAS) ([1]; KD ratio, GDP-bound NRAS wild-type vs GDP-bound KRAS wild-type): A (a compound having 10 or more and less than 20 is denoted as A); HRAS/KRAS (ratio of KD value for HRAS to KD value for KRAS) ([2]; KD ratio, GDP-bound HRAS wild-type vs GDP-bound KRAS wild-type): B (a compound having 3 or more and less than 10 is denoted as B)

**Q.** For `CCCOC[C@H]1C(=O)N[C@@H]([C@@H](C)CC)C(=O)N(C)CC(=O)N(C)[C@H]2C/C=C\CCN(C2=O)[C@@H](Cc2ccc(C)cc2)C(=O)N(C)CC(=O)N[C@@H](CCc2ccc(C(F)(F)F)c(OC)c2)C(=O)N2C[C@@H](C)C[C@H]2C(=O)NC2(CC(C)(C)C2)C(=O)N(C)[C@@H](C2CCCC2)C(=O)N(C)[C@H](C(=O)N(C)C)CC(=O)N1C` [PP2447], which “NRAS/KRAS (ratio of KD value with respect to NRAS to KD value with respect to KRAS)” value [1, 3] is on record?
**A.** The value was “A (a compound having 10 or more and less than 20 is denoted as A)”.

**Q.** And the “HRAS/KRAS (ratio of KD value with respect to HRAS to KD value with respect to KRAS)” value [2, 4]?
**A.** Its value is “B (a compound having 3 or more and less than 10 is denoted as B)”.

**Q.** With `CCCOC[C@H]1C(=O)N[C@@H]([C@@H](C)CC)C(=O)N(C2CC2)CC(=O)N(C)[C@H]2C/C=C\CCN(C2=O)[C@@H](CC2CCC(F)(F)CC2)C(=O)N(C)CC(=O)N[C@@H](CCc2ccc(C(F)(F)F)c(OC)c2)C(=O)N2C[C@@H](C)C[C@H]2C(=O)N(C)C2(CCC2)C(=O)N(C)[C@@H](C2CCCC2)C(=O)N(C)[C@H](C(=O)N(C)C)CC(=O)N1C` [PP2379] as the compound, how does the “NRAS/KRAS (ratio of KD value with respect to NRAS to KD value with respect to KRAS)” value [1, 3] read?
**A.** The value was “A (a compound having 10 or more and less than 20 is denoted as A)”.

**Q.** What about the “HRAS/KRAS (ratio of KD value with respect to HRAS to KD value with respect to KRAS)” value [2, 4] of the same compound?
**A.** The value was “A (a compound having 10 or more and less than 20 is denoted as A)”.

**Q.** `CCC[C@H]1C(=O)N[C@@H](C2CCOCC2)C(=O)N(C)CC(=O)N(C)[C@H]2C/C=C\CCN(C2=O)[C@@H](Cc2ccc(C)cc2)C(=O)N(C)CC(=O)N[C@@H](CCc2ccc(C(F)(F)F)c(Cl)c2)C(=O)N2C[C@H](OCC)C[C@H]2C(=O)NC2(CC(C)(C)C2)C(=O)N(C)[C@@H](CC(C)(C)C)C(=O)N(C)[C@H](C(=O)N(C)C)CC(=O)N1C` [PP3026] was tested. Which “NRAS/KRAS (ratio of KD value with respect to GDP-bound NRAS wild-type protein to KD value with respect to KRAS)” value ([1]; KD ratio NRAS/KRAS, GDP-bound wild-type proteins) did it give?
**A.** Its value is “A (a compound having 10 or more and less than 20 is denoted as A)”.

**Q.** What about the “HRAS/KRAS (ratio of KD value with respect to GDP-bound HRAS wild-type protein to KD value with respect to KRAS)” value ([2]; KD ratio HRAS/KRAS, GDP-bound wild-type proteins) of the same compound?
**A.** The value was “A (a compound having 10 or more and less than 20 is denoted as A)”.

**Q.** How did the “NRAS/KRAS (ratio of KD value with respect to GDP-bound NRAS wild-type protein to KD value with respect to KRAS)” value ([1]; KD ratio NRAS/KRAS) turn out when `CC(C)C[C@H]1C(=O)N[C@@H](C2CCC2)C(=O)N(C)CC(=O)N(C)[C@H]2CCCCN(C2=O)[C@@H](Cc2ccc(C(F)(F)F)cc2)C(=O)N(C)CC(=O)N[C@@H](CCc2cc(F)c(C(F)(F)F)c(F)c2)C(=O)N2CCC[C@H]2C(=O)NC2(CCCC2)C(=O)N(C)[C@@H](C2CCCC2)C(=O)N(C)[C@H](C(=O)N2CCOCC2)CC(=O)N1C` [PP0596] was run?
**A.** The value was “B (a compound having 3 or more and less than 10 is denoted as B)”.

**Q.** And the “HRAS/KRAS (ratio of KD value with respect to GDP-bound HRAS wild-type protein to KD value with respect to KRAS)” value ([2]; KD ratio HRAS/KRAS)?
**A.** Its value is “B (a compound having 3 or more and less than 10 is denoted as B)”.

**Q.** `CC[C@H](C)[C@@H]1NC(=O)[C@H](CC(C)C)N(C)C(=O)C[C@@H](C(=O)N2CCOCC2)N(C)C(=O)[C@H](C2CCCC2)N(C)C(=O)C2(CCCC2)NC(=O)[C@@H]2CCCN2C(=O)[C@H](CCc2ccc(C(F)(F)F)c(Cl)c2)NC(=O)CN(C)C(=O)[C@H](Cc2ccccc2)N2CCCCC[C@@H](C2=O)N(C)C(=O)CN(C)C1=O` [PP0611] was tested. Which “NRAS/KRAS (ratio of KD value with respect to GDP-bound NRAS wild-type protein to KD value with respect to KRAS)” value ([1]; KD ratio NRAS/KRAS) did it give?
**A.** The value was “B (a compound having 3 or more and less than 10 is denoted as B)”.

**Q.** What about the “HRAS/KRAS (ratio of KD value with respect to GDP-bound HRAS wild-type protein to KD value with respect to KRAS)” value ([2]; KD ratio HRAS/KRAS) of the same compound?
**A.** The value was “B (a compound having 3 or more and less than 10 is denoted as B)”.

**Q.** With `CCCN1C(=O)CN(C)C(=O)[C@@H]2CCN2C(=O)[C@H](C2CCCC2)NC(=O)[C@H](CC(C)C)N(C)C(=O)C[C@@H](C(=O)N2CCOCC2)N(C)C(=O)[C@H](C2CCCC2)N(C)C(=O)C2(CCCC2)NC(=O)[C@@H]2CCCN2C(=O)[C@H](CCc2ccc(C(F)(F)F)c(Cl)c2)NC(=O)CN(C)C(=O)[C@@H]1Cc1ccc(C(F)(F)F)cc1` [PP0306] ([NMeL][Gly(cPent)][Aze][Sar][NPrPhe(4-CF3)][Sar][hPhe(3-Cl-4-CF3)]P[Ac5c][NMeGly(cPent)][NMeD]-Morpholide; lactam N-11) as the compound, how does the “NRAS/KRAS (ratio of KD for GDP-bound NRAS wild-type to KD for KRAS)” value ([1]; KD ratio NRAS/KRAS) read?
**A.** Its value is “B (a compound having 3 or more and less than 10 is denoted as B)”.

**Q.** And the “HRAS/KRAS (ratio of KD for GDP-bound HRAS wild-type to KD for KRAS)” value ([2]; KD ratio HRAS/KRAS)?
**A.** Its value is “B (a compound having 3 or more and less than 10 is denoted as B)”.

**Q.** `CCC(CC)[C@H]1C(=O)N(C)[C@H](C(=O)N(C)C)CC(=O)N(C)[C@@H](CC2CC2)C(=O)N[C@@H]([C@@H](C)CC)C(=O)N(C)CC(=O)N(C)[C@H]2C/C=C\CCN(C2=O)[C@@H](CC2CCC(F)(F)CC2)C(=O)N(C)CC(=O)N[C@@H](CCc2cc(F)c(C(F)(F)F)c(F)c2)C(=O)N2C[C@@H](C)C[C@H]2C(=O)NC2(CC(C)(C)C2)C(=O)N1C` [PP2500] was tested. Which “NRAS/KRAS (ratio of KD value with respect to NRAS to KD value with respect to KRAS)” value [1, 3] did it give?
**A.** The value was “A (a compound having 10 or more and less than 20 is denoted as A)”.

**Q.** What about the “HRAS/KRAS (ratio of KD value with respect to HRAS to KD value with respect to KRAS)” value [2, 4] of the same compound?
**A.** The value was “A (a compound having 10 or more and less than 20 is denoted as A)”.
